From PubChem BioAssay (NCI)
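Values below derive from 48-hour exposures of cells grown in 96-well plates, with endpoints linearly interpolated between the two concentrations bracketing the appropriate inhibition level. TGI denotes the concentration required for complete inhibition of growth.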

Columns and labels:
Experiment in all cases: NCI anticancer screen, dose series, 48 h
RPMI-8226 leukemia = tested on: RPMI-8226 leukemia
M14 melanoma = tested on: M14 melanoma
MALME-3M melanoma = tested on: MALME-3M melanoma
MOLT-4 leukemia = tested on: MOLT-4 leukemia
HOP-18 NSCLC = tested on: HOP-18 NSCLC
A498 renal = tested on: A498 renal
SK-OV-3 ovarian = tested on: SK-OV-3 ovarian
NCI-H23 lung = tested on: NCI-H23 lung
UACC-62 melanoma = tested on: UACC-62 melanoma
A549 NSCLC = tested on: A549 NSCLC
SR leukemia = tested on: SR leukemia
HOP-62 NSCLC = tested on: HOP-62 NSCLC
SF-268 CNS = tested on: SF-268 CNS
UO-31 renal = tested on: UO-31 renal
K-562 leukemia = tested on: K-562 leukemia
OVCAR-3 ovarian = tested on: OVCAR-3 ovarian
786-0 renal = tested on: 786-0 renal
SW-620 colon = tested on: SW-620 colon
HCC-2998 colon = tested on: HCC-2998 colon
COLO 205 colon = tested on: COLO 205 colon
SN12C renal = tested on: SN12C renal
HCT-15 colon = tested on: HCT-15 colon
KM20L2 colon = tested on: KM20L2 colon
NCI-H226 lung = tested on: NCI-H226 lung
HCT-116 colon = tested on: HCT-116 colon
OVCAR-8 ovarian = tested on: OVCAR-8 ovarian
SK-MEL-5 melanoma = tested on: SK-MEL-5 melanoma
SNB-78 CNS = tested on: SNB-78 CNS
SK-MEL-2 melanoma = tested on: SK-MEL-2 melanoma
HL-60(TB) leukemia = tested on: HL-60(TB) leukemia
DLD-1 colon = tested on: DLD-1 colon
CAKI-1 renal = tested on: CAKI-1 renal
LXFL 529 NSCLC = tested on: LXFL 529 NSCLC
RXF 393 renal = tested on: RXF 393 renal
RXF-631 renal = tested on: RXF-631 renal
KM12 colon = tested on: KM12 colon
DMS 114 small cell lung = tested on: DMS 114 small cell lung
UACC-257 melanoma = tested on: UACC-257 melanoma
U251 CNS = tested on: U251 CNS
DMS 273 small cell lung = tested on: DMS 273 small cell lung
SK-MEL-28 melanoma = tested on: SK-MEL-28 melanoma
CCRF-CEM leukemia = tested on: CCRF-CEM leukemia
SNB-75 CNS = tested on: SNB-75 CNS
M19-MEL melanoma = tested on: M19-MEL melanoma
ACHN renal = tested on: ACHN renal
NCI-H522 lung = tested on: NCI-H522 lung
HT29 colon = tested on: HT29 colon
IGROV1 ovarian = tested on: IGROV1 ovarian
TK-10 renal = tested on: TK-10 renal
OVCAR-4 ovarian = tested on: OVCAR-4 ovarian
SNB-19 CNS = tested on: SNB-19 CNS
EKVX NSCLC = tested on: EKVX NSCLC
OVCAR-5 ovarian = tested on: OVCAR-5 ovarian
HOP-92 NSCLC = tested on: HOP-92 NSCLC
NCI-H460 lung = tested on: NCI-H460 lung
XF 498 CNS = tested on: XF 498 CNS
SF-539 CNS = tested on: SF-539 CNS
LOX IMVI melanoma = tested on: LOX IMVI melanoma
SF-295 CNS = tested on: SF-295 CNS

With `Cc1ccc2c(c1-c1ccccc1)C(=O)OC2` the TGI (RPMI-8226 leukemia) was greater than 100 µM, the TGI (M14 melanoma) was greater than 100 µM and the TGI (MALME-3M melanoma) was greater than 100 µM. The TGI (MOLT-4 leukemia) was greater than 100 µM, the TGI (HOP-18 NSCLC) was greater than 100 µM and the TGI (A498 renal) was greater than 100 µM. For the same compound, the TGI (SK-OV-3 ovarian) was greater than 100 µM, the TGI (NCI-H23 lung) was greater than 100 µM and the TGI (UACC-62 melanoma) was 92.8 µM. The TGI (A549 NSCLC) was greater than 100 µM, the TGI (SR leukemia) was greater than 100 µM and the TGI (HOP-62 NSCLC) was greater than 100 µM. It also gave a TGI (SF-268 CNS) greater than 100 µM, a TGI (UO-31 renal) greater than 100 µM and a TGI (K-562 leukemia) greater than 100 µM. The TGI (OVCAR-3 ovarian) was greater than 100 µM, the TGI (786-0 renal) was greater than 100 µM and the TGI (SW-620 colon) was greater than 100 µM. The TGI (HCC-2998 colon) was greater than 100 µM, the TGI (COLO 205 colon) was greater than 100 µM and the TGI (SN12C renal) was greater than 100 µM. It also gave a TGI (HCT-15 colon) greater than 100 µM, a TGI (KM20L2 colon) of 60.7 µM and a TGI (NCI-H226 lung) greater than 100 µM. It also gave a TGI (HCT-116 colon) greater than 100 µM, a TGI (OVCAR-8 ovarian) greater than 100 µM and a TGI (SK-MEL-5 melanoma) greater than 100 µM. For the same compound, the TGI (SNB-78 CNS) was greater than 100 µM, the TGI (SK-MEL-2 melanoma) was greater than 100 µM and the TGI (HL-60(TB) leukemia) was greater than 100 µM. For the same compound, the TGI (DLD-1 colon) was greater than 100 µM, the TGI (CAKI-1 renal) was greater than 100 µM and the TGI (LXFL 529 NSCLC) was greater than 100 µM. The TGI (RXF 393 renal) was greater than 100 µM, the TGI (RXF-631 renal) was greater than 100 µM and the TGI (KM12 colon) was greater than 100 µM. It also gave a TGI (DMS 114 small cell lung) greater than 100 µM, a TGI (UACC-257 melanoma) greater than 100 µM and a TGI (U251 CNS) greater than 100 µM. The TGI (DMS 273 small cell lung) was greater than 100 µM, the TGI (SK-MEL-28 melanoma) was greater than 100 µM and the TGI (CCRF-CEM leukemia) was greater than 100 µM. The TGI (SNB-75 CNS) was greater than 100 µM, the TGI (M19-MEL melanoma) was greater than 100 µM and the TGI (ACHN renal) was greater than 100 µM. It also gave a TGI (NCI-H522 lung) greater than 100 µM, a TGI (HT29 colon) greater than 100 µM and a TGI (IGROV1 ovarian) greater than 100 µM. For the same compound, the TGI (TK-10 renal) was greater than 100 µM, the TGI (OVCAR-4 ovarian) was greater than 100 µM and the TGI (SNB-19 CNS) was greater than 100 µM. The TGI (EKVX NSCLC) was 43.4 µM.
`O=C1C=CC(=CC=C2C=CN(CCCCCCCCCCC(=O)NCCCCCCCCCCCC(=O)O)C=C2)C=C1` was tested, and the TGI (RPMI-8226 leukemia) was greater than 100 µM, the TGI (M14 melanoma) was greater than 100 µM and the TGI (MALME-3M melanoma) was greater than 100 µM. For the same compound, the TGI (OVCAR-5 ovarian) was greater than 100 µM, the TGI (MOLT-4 leukemia) was greater than 100 µM and the TGI (A498 renal) was greater than 100 µM. It also gave a TGI (SK-OV-3 ovarian) greater than 100 µM, a TGI (NCI-H23 lung) greater than 100 µM and a TGI (UACC-62 melanoma) greater than 100 µM. It also gave a TGI (A549 NSCLC) greater than 100 µM, a TGI (SR leukemia) greater than 100 µM and a TGI (HOP-92 NSCLC) greater than 100 µM. The TGI (HOP-62 NSCLC) was greater than 100 µM, the TGI (SF-268 CNS) was greater than 100 µM and the TGI (UO-31 renal) was greater than 100 µM. For the same compound, the TGI (NCI-H460 lung) was greater than 100 µM, the TGI (K-562 leukemia) was greater than 100 µM and the TGI (OVCAR-3 ovarian) was greater than 100 µM. It also gave a TGI (786-0 renal) greater than 100 µM, a TGI (SW-620 colon) greater than 100 µM and a TGI (HCC-2998 colon) greater than 100 µM. The TGI (COLO 205 colon) was greater than 100 µM, the TGI (XF 498 CNS) was greater than 100 µM and the TGI (SN12C renal) was greater than 100 µM. The TGI (HCT-15 colon) was greater than 100 µM, the TGI (KM20L2 colon) was greater than 100 µM and the TGI (NCI-H226 lung) was greater than 100 µM. It also gave a TGI (HCT-116 colon) greater than 100 µM, a TGI (OVCAR-8 ovarian) greater than 100 µM and a TGI (SK-MEL-5 melanoma) greater than 100 µM. The TGI (SNB-78 CNS) was greater than 100 µM, the TGI (SF-539 CNS) was greater than 100 µM and the TGI (HL-60(TB) leukemia) was greater than 100 µM. The TGI (DLD-1 colon) was greater than 100 µM, the TGI (CAKI-1 renal) was greater than 100 µM and the TGI (LXFL 529 NSCLC) was greater than 100 µM. It also gave a TGI (RXF 393 renal) greater than 100 µM, a TGI (RXF-631 renal) greater than 100 µM and a TGI (KM12 colon) greater than 100 µM. It also gave a TGI (DMS 114 small cell lung) greater than 100 µM, a TGI (UACC-257 melanoma) greater than 100 µM and a TGI (U251 CNS) greater than 100 µM. It also gave a TGI (LOX IMVI melanoma) greater than 100 µM, a TGI (DMS 273 small cell lung) greater than 100 µM and a TGI (SK-MEL-28 melanoma) greater than 100 µM. For the same compound, the TGI (CCRF-CEM leukemia) was greater than 100 µM, the TGI (SNB-75 CNS) was greater than 100 µM and the TGI (M19-MEL melanoma) was greater than 100 µM. The TGI (ACHN renal) was greater than 100 µM, the TGI (NCI-H522 lung) was greater than 100 µM and the TGI (HT29 colon) was greater than 100 µM. The TGI (SF-295 CNS) was greater than 100 µM, the TGI (IGROV1 ovarian) was greater than 100 µM and the TGI (TK-10 renal) was greater than 100 µM. The TGI (OVCAR-4 ovarian) was greater than 100 µM, the TGI (SNB-19 CNS) was greater than 100 µM and the TGI (EKVX NSCLC) was greater than 100 µM.
